According to patent US7153837B2, “Agent for protection of retinal neurons” (Ortho-McNeil Pharmaceutical Inc., priority 2001, dated 2006):

Tests used:
[1] = system: cultured retinal neurons of rat fetus; assay: glutamate-induced death of cultured retinal neurons of rat fetus (trypan blue exclusion); type: cell-based; details: for Survival rate of cultured retinal neurons (%): 10 min, then 1 h drug-free, untreated 67, glutamate alone 46
Method: (1) Topiramate's Action on the Glutamate-Induced Death of Cultured Retinal Neurons of Rat Fetus: From rat fetuses (aged 17 to 19 days), retinal cells were taken out and isolated, and were cultured on a polyethylene-imine-coated plastic-covered slip in a 10% bovine fetal serum-containing Eagle's basal medium for seven days. From the eighth day, they were cultured in a 10% equine serum-containing Eagle's basal medium. On the sixth day of culture, cytosine arabinoside (10 μM) was added to inhibit the proliferation of non-neuronal cells. Next, the cells were incubated (37° C., 5% CO2.95% air) for 10 minutes in a medium which had been prepared by adding glutamate (1 mM) and topiramate in various concentrations (10 nM˜100 μM) to serum-free Eagle's basal medium. Then, cells were returned to serum-free Eagle's basal medium which contained neither glutamate nor topiramate, and were incubated (37° C., 5% CO2.95% air) for one hour, and, thereafter, toxicity was determined by trypan blue exclusion method. In detail, cells were immobilized with 10% neutral formalin solution, and were washed with physiological saline. Then, cells were dyed by adding trypan blue solution, and, thus, the number of cells was counted by phase-contrast microscope. Cells which had been dyed with trypan blue were regarded as dead, and non-dyed cells as surviving, and, thus, the survival rate of cultured cells was found from the proportion of the number of surviving cells to the number of total cells counted (at least 200). The group to which 1 mM of glutamate had been added and the group to which both 1 mM of glutamate and topiramate in various concentrations had been added are respectively called “Single 1 mM glutamate added group” and “1 mM glutamate+topiramate (various concentrations) added group”. Results concerning these groups were compared with the corresponding measured values of “Untreated group”, i.e., a group which had received no treatments. The values in the table are average values.

[2] = system: ischemia-induced retinal damage; assay: ischemia-induced retinal damage in rat (ischemia-reperfusion, retinal histology); type: in vivo
Description: (2) Topiramate's Action on Ischemia-Induced Retinal Damage in Rat:
Anesthesia was indued in rat with 3% halothane, and, then, anesthesia was maintained with 1% halothane (halothane was vaporized with 0.5 l oxygen/min. and 1.5 l dinitrogen monoxider/min.). Next, mydriasis was caused in right eye with atropine, and, then, 30 G injection needle which was connected with a vessel of physiological saline for instillation via a tube hung from the ceiling was stuck into anterior chamber, and, thus, a 130 mmHg hydraulic pressure was given, and ischemia was thereby induced After 45 minutes, the injection needle was removed, and retinal blood flow was allowed to make reperfusion. Administration was conducted by intraperitoneal injection into rats with physiological saline (solvent) and topiramate (200 mg/kg body weight) dissolved (partially suspended) in solvent, respectively. The administration was carried out twice respectively, i.e., two hours before and immediately after inschemia. Seven days after the administration, eyeball was taken out, immobilized overnight in 2% paraformaldehyde-2.5% glutaraldehyde, subjected to paraffin embedding, and was sectioned, and, thus, retinal slices (with a thickness of 3 μm) stained with hematoxylin-eosin (HE) were prepared. From eight slices which had been cut with an interval of 60 μm per one eyeball so that optic nerve head might be covered, three slices were optionally selected. With regard to thus selected three slices, there was taken a photograph of retina in the range of 1 to 1.5 mm on the left or right side from optic nerve head, and, thus, the number of cells in ganglion cell layer (GCL) in retina and the thickness of inner plaxiform layer (IPL) were measured. The group to which solvent had been administered and ischemia had been induced and the group to which topiramate dissolved in solvent had been administered and ischemia had been induced are respectively called “Solvent-administered group” and “Topiramate-administered group”. […]

CC1(C)O[C@@H]2[C@@H](CO[C@@]3(COS(N)(=O)=O)OC(C)(C)O[C@@H]23)O1 [topiramate, 2,3:4,5-bis-O-(1-methylethylidene)-β-D-fructopyranose sulfamate]
Survival rate of cultured retinal neurons (%) ([1]; 1 mM glutamate + 10 nM topiramate): 50% | Survival rate of cultured retinal neurons (%) ([1]; 1 mM glutamate + 100 nM topiramate): 58% | Survival rate of cultured retinal neurons (%) ([1]; 1 mM glutamate + 1 μM topiramate): 60% | Survival rate of cultured retinal neurons (%) ([1]; 1 mM glutamate + 10 μM topiramate): 64% | Survival rate of cultured retinal neurons (%) ([1]; 1 mM glutamate + 100 μM topiramate): 65% | effect on death (apoptosis) of cultured retinal neurons ([1]; 1 mM glutamate, topiramate 10 nM-100 μM, summary of Table 1): remarkably inhibit the death (apoptosis) of cultured retinal neurons in a concentration-dependent manner | Thickness of IPL (μm) ([2]; 200 mg/kg intraperitoneal twice (2 h before and immediately after 45 min ischemia), 7 days after, normal 49, solvent 21): 30 μm | Number of cells in GCL (number/mm) ([2]; 200 mg/kg intraperitoneal twice (2 h before and immediately after 45 min ischemia), 7 days after, normal 68, solvent 36): 44 number/mm | effect on decrease of number of cells in ganglion cell layer and thinning of inner plexiform layer ([2]; 200 mg/kg intraperitoneal, summary of Table 2): excellent in effectively preventing both the decrease of number of cells in ganglion cell layer and the thinning of inner plexiform layer
